Reference: patent US20240376094A2, “SELECTIVE BCL-XL PROTAC COMPOUNDS AND METHODS OF USE” (Les Laboratoires Servier, priority 2021, published 2024)
pIC50: −log10 of the molar value.

Experiments:
Bcl-xL = molecular target: T1, Bcl-xL (Homo sapiens, UniProt Q07817); assay: HCT116 Bcl-xL degradation, capillary-based immunoassay (WES); format: cell-based; settings: for DC50: HCT116, 24 h, 9-point serial dilution
T1 construct: Measured levels of Bcl-xL protein of HCT116 cells treated with the tested compounds; host or cells: HCT116
T1 sequence (Q07817 whole entry): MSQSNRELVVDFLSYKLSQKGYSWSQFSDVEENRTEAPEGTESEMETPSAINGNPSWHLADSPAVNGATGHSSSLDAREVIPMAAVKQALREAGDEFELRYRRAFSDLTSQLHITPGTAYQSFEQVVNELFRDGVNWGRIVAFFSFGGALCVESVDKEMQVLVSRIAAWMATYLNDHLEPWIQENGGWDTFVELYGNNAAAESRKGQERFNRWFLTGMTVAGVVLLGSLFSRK
Experimental: HCT116 cells were purchased from ATCC and cultivated in RPMI 1640 supplemented with 10% heat inactivated fetal bovine serum, penicillin (100 IU/mi), streptomycin (100 μg/ml) and L-glutamine (2 mM). Cells were cultured at 37° C. in a humidified atmosphere containing 5% CO2. Cells were seeded in 96 microwell plates, 24 h later cells were treated with compounds (2-point 10/100 nM and/or 9-point serial dilution to determine DC50; quadruplicates) during 24 h and harvested in lysis buffer containing 10 mM Hepes (pH 7.5), 150 mM KCl, 5 mM MgCl2, 1 mM EDTA, 0.4% TritonX100, protease and phosphatase inhibitors cocktails (Calbiochem).
Protein concentration in the supernatants was determined using the Pierce BCA protein assay kit (Thermo Fisher Scientific). Lysates (1.5 μg/μL) were analyzed using an automated capillary electrophoresis WES system with 2-40 kDa Wes Separation Module (25 capillary cartridges, Proteinsimple), in accordance with the manufacturer's protocols. Antibodies against the following proteins were used: Bcl-xL (#2764, Cell Signaling Technology, 1:50) and cofilin (#5175, Cell Signaling Technology, 1:1000). Signals were detected with an HRP-conjugated secondary anti-rabbit antibody (#042-206, Proteinsimple) and were quantified using Compass software (version 4.0, Proteinsimple).
Bcl-xL level was calculated by normalizing Bcl-xL values to cofilin and expressed as a percentage of the normalized value of the untreated cells. DC50 were calculated using standard four-parametric curve fitting. DC50 is defined as the compound concentration at which Bcl-xL is reduced to 50% of that measured for the control. Measured levels of Bcl-xL protein of HCT116 cells treated with the tested compounds at 2-point 10 nM/100 nM and/or 9-point for DC50 determination are shown in Table 15.

MOLT-4 cells = assay: MOLT-4 cell viability, CTG assay; format: cell-based; settings: Homo sapiens, MOLT-4, 48 h
Description: The MTT colorimetric assay is based on the mitochondrial reduction of tetrazolium salt by living cells. The viable cell number is proportional to the production of formazan salts, which can be read spectrophotometrically at 540 nm. The CTG luminescent assay (CellTiter GLO, Promega) is based on a reagent which lyses cells and measures total adenosine triphosphate (ATP) content. The viable cell number is proportional to the production of ATP.
MOLT-4 cells were purchased from ATCC and cultivated in RPMI 1640 supplemented with 10% heat inactivated fetal bovine serum, penicillin (100 IU/mi), streptomycin (100 μg/ml) and L-glutamine (2 mM). Cells were cultured at 37° C. in a humidified atmosphere containing 5% […].
For CTG assay, cells were seeded in 384 microwell plates (40 μL per well) and exposed to the compounds for 48 h (11-point serial dilution with 5-fold factor, triplicates). At the end of incubation time, 40 μL of CTG solution were added per well. Wells were mixed thoroughly, and plates were incubated at room temperature for 10 minutes to stabilize luminescent signals prior to reading using a luminescence reader (PHERAStar FSX Reader, BMG Labtech).
IC50, were calculated using standard four-parametric curve fitting. IC50 is defined as the compound concentration at which the MTT or CTG signal is reduced to 50% of that measured for the control. Results shown in Table 14 represent the mean of at least 2 independent experiments.

Compound	DC50 (Bcl-xL) [nM]	pIC50 (MOLT-4 cells)	remaining activity at 0.01 µM (Bcl-xL; HCT-116, HCT116, 10 nM, 24 h, % of untreated cells) [%]	remaining activity at 0.1 µM (Bcl-xL; HCT-116, HCT116, 100 nM, 24 h, % of untreated cells) [%]
Cc1c(Nc2nc3ccccc3s2)nnc2c1CCCN2c1ccc(-c2cnn(CC34CC5(C)CC(C)(C3)CC(OCCN(C)CCCCCCCC(=O)N3CCC(c6ccc7c(c6)CN(C6CCC(=O)NC6=O)C7=O)CC3)(C5)C4)c2C)c(C(=O)O)n1 (stereo not shown) [Example 68, 6-[3-(1,3-benzothiazol-2-ylamino)-4-methyl-6,7-dihydro-5H-pyrido[2,3-c]pyridazin-8-yl]-3-[1-[[3-[2-[[8-[4-[2-(2,6-dioxo-3-piperidyl)-1-oxo-isoindolin-5-yl]-1-piperidyl]-8-oxo-octyl]-methyl-amino]ethoxy]-5,7-dimethyl-1-adamantyl]methyl]-5-methyl-pyrazol-4-yl]pyridine-2-carboxylic acid]	> 316	7.82		
Cc1c(Nc2nc3ccccc3s2)nnc2c1CCCN2c1ccc(-c2cnn(CC34CC5(C)CC(C)(C3)CC(OCCN(C)CCCCCCCCCCCC(=O)N3CCC(c6ccc7c(c6)CN(C6CCC(=O)NC6=O)C7=O)CC3)(C5)C4)c2C)c(C(=O)O)n1 (stereo not shown) [Example 69, 6-[3-(1,3-benzothiazol-2-ylamino)-4-methyl-6,7-dihydro-5H-pyrido[2,3-c]pyridazin-8-yl]-3-[1-[[3-[2-[[12-[4-[2-(2,6-dioxo-3-piperidyl)-1-oxo-isoindolin-5-yl]-1-piperidyl]-12-oxo-dodecyl]-methyl-amino]ethoxy]-5,7-dimethyl-1-adamantyl]methyl]-5-methyl-pyrazol-4-yl]pyridine-2-carboxylic acid]	0.711	8.29		
Cc1c(Nc2nc3ccccc3s2)nnc2c1CCCN2c1ccc(-c2cnn(CC34CC5(C)CC(C)(C3)CC(OCCN(C)CCCCCCCCCC(=O)N3CCC(c6ccc7c(c6)CN(C6CCC(=O)NC6=O)C7=O)CC3)(C5)C4)c2C)c(C(=O)O)n1 (stereo not shown) [Example 70, 6-[3-(1,3-benzothiazol-2-ylamino)-4-methyl-6,7-dihydro-5H-pyrido[2,3-c]pyridazin-8-yl]-3-[1-[[3-[2-[[10-[4-[2-(2,6-dioxo-3-piperidyl)-1-oxo-isoindolin-5-yl]-1-piperidyl]-10-oxo-decyl]-methyl-amino]ethoxy]-5,7-dimethyl-1-adamantyl]methyl]-5-methyl-pyrazol-4-yl]pyridine-2-carboxylic acid]		8.13	101	90
Cc1c(Nc2nc3ccccc3s2)nnc2c1CCCN2c1ccc(-c2cnn(CC34CC5(C)CC(C)(C3)CC(OCCN(C)CCCCCCCCC(=O)N3CCC(c6ccc7c(c6)CN(C6CCC(=O)NC6=O)C7=O)CC3)(C5)C4)c2C)c(C(=O)O)n1 (stereo not shown) [Example 71, 6-[3-(1,3-benzothiazol-2-ylamino)-4-methyl-6,7-dihydro-5H-pyrido[2,3-c]pyridazin-8-yl]-3-[1-[[3-[2-[[9-[4-[2-(2,6-dioxo-3-piperidyl)-1-oxo-isoindolin-5-yl]-1-piperidyl]-9-oxo-nonyl]-methyl-amino]ethoxy]-5,7-dimethyl-1-adamantyl]methyl]-5-methyl-pyrazol-4-yl]pyridine-2-carboxylic acid]	> 316	7.99		
Cc1c(Nc2nc3ccccc3s2)nnc2c1CCCN2c1ccc(-c2cnn(CC34CC5(C)CC(C)(C3)CC(OCCN(C)CCCCCCCCCCCCC(=O)N3CCC(c6ccc7c(c6)CN(C6CCC(=O)NC6=O)C7=O)CC3)(C5)C4)c2C)c(C(=O)O)n1 (stereo not shown) [Example 78, 6-[3-(1,3-benzothiazol-2-ylamino)-4-methyl-6,7-dihydro-5H-pyrido[2,3-c]pyridazin-8-yl]-3-[1-[[3-[2-[[13-[4-[2-(2,6-dioxo-3-piperidyl)-1-oxo-isoindolin-5-yl]-1-piperidyl]-13-oxo-tridecyl]-methyl-amino]ethoxy]-5,7-dimethyl-1-adamantyl]methyl]-5-methyl-pyrazol-4-yl]pyridine-2-carboxylic acid]	0.121	8.35		
Cc1ncsc1-c1ccc(CNC(=O)[C@@H]2C[C@@H](O)CN2C(=O)[C@@H](NC(=O)C2(F)CC2)C(C)(C)C)c(OCCCCCCCCCCCCCCCN(C)CCOC23CC4(C)CC(C)(CC(Cn5ncc(-c6ccc(N7CCCc8c7nnc(Nc7nc9ccccc9s7)c8C)nc6C(=O)O)c5C)(C4)C2)C3)c1 [Example 83, 6-[3-(1,3-benzothiazol-2-ylamino)-4-methyl-6,7-dihydro-5H-pyrido[2,3-c]pyridazin-8-yl]-3-[1-[[3-[2-[15-[2-[[[(2S,4R)-1-[(2S)-2-[(1-fluorocyclopropanecarbonyl)amino]-3,3-dimethyl-butanoyl]-4-hydroxy-pyrrolidine-2-carbonyl]amino]methyl]-5-(4-methylthiazol-5-yl)phenoxy]pentadecyl-methyl-amino]ethoxy]-5,7-dimethyl-1-adamantyl]methyl]-5-methyl-pyrazol-4-yl]pyridine-2-carboxylic acid]	4.49	8.33		
Cc1cc(N(CCCCN(C)C(=O)CCCCCCCCCCNc2cccc3c2C(=O)N(C2CCC(=O)NC2=O)C3=O)c2ccc(-c3cnn(CC45CC6(C)CC(C)(C4)CC(OCCN(C)C)(C6)C5)c3C)c(C(=O)O)n2)nnc1Nc1nc2ccccc2s1 (stereo not shown) [Example 90, 6-[[6-(1,3-benzothiazol-2-ylamino)-5-methyl-pyridazin-3-yl]-[4-[11-[[2-(2,6-dioxo-3-piperidyl)-1,3-dioxo-isoindolin-4-yl]amino]undecanoyl-methyl-amino]butyl]amino]-3-[1-[[3-[2-(dimethylamino)ethoxy]-5,7-dimethyl-1-adamantyl]methyl]-5-methyl-pyrazol-4-yl]pyridine-2-carboxylic acid]	1.33	7.77		
Cc1cc(N(CCCCN(C)C(=O)CCCCCCCCNc2cccc3c2C(=O)N(C2CCC(=O)NC2=O)C3=O)c2ccc(-c3cnn(CC45CC6(C)CC(C)(C4)CC(OCCN(C)C)(C6)C5)c3C)c(C(=O)O)n2)nnc1Nc1nc2ccccc2s1 (stereo not shown) [Example 91, 6-[[6-(1,3-benzothiazol-2-ylamino)-5-methyl-pyridazin-3-yl]-[4-[9-[[2-(2,6-dioxo-3-piperidyl)-1,3-dioxo-isoindolin-4-yl]amino]nonanoyl-methyl-amino]butyl]amino]-3-[1-[[3-[2-(dimethylamino)ethoxy]-5,7-dimethyl-1-adamantyl]methyl]-5-methyl-pyrazol-4-yl]pyridine-2-carboxylic acid]	0.407	7.90		
Cc1cc(N(CCCCN(C)C(=O)CCCCCCCCCNc2cccc3c2C(=O)N(C2CCC(=O)NC2=O)C3=O)c2ccc(-c3cnn(CC45CC6(C)CC(C)(C4)CC(OCCN(C)C)(C6)C5)c3C)c(C(=O)O)n2)nnc1Nc1nc2ccccc2s1 (stereo not shown) [Example 92, 6-[[6-(1,3-benzothiazol-2-ylamino)-5-methyl-pyridazin-3-yl]-[4-[10-[[2-(2,6-dioxo-3-piperidyl)-1,3-dioxo-isoindolin-4-yl]amino]decanoyl-methyl-amino]butyl]amino]-3-[1-[[3-[2-(dimethylamino)ethoxy]-5,7-dimethyl-1-adamantyl]methyl]-5-methyl-pyrazol-4-yl]pyridine-2-carboxylic acid]	0.954	7.83		
